This note sets out measurements from PubChem BioAssay AID330 (DTP/NCI, 2004).

Where “and” joins values, the source holds several entries; their conditions need not be identical. Equal values may be shown once. Inconclusive results and toxic doses are left out.

This test has as its system P388 leukemia ip, CD2F1 mice, survival T/C. Briefly: NCI In Vivo Anticancer Drug Screen. Data for tumor model P388 Leukemia (intraperitoneal) in CD2F1 (CDF1) mice. The settings on record: endpoint: median survival time, higher = longer survival. Put shortly:
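Mice carrying the transplanted tumor received test compound or vehicle. Survival was recorded in each group, and the value is the treated-group measurement divided by that of the vehicle-treated control group.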

[1] abbreviates: dose: 60.0 mg/kg/injection, schedule: Q01DX005 (ip), vehicle: saline with Tween-80.
Setting [2] is: dose: 50.0 mg/kg/injection, schedule: Q01DX005 (ip), vehicle: Klucel (hydroxypropylcellulose) (HPC).
The mark [3] stands for this setting: dose: 100.0 mg/kg/injection, schedule: Q01DX005 (ip), vehicle: Klucel (hydroxypropylcellulose) (HPC).
Setting [4] is: dose: 200.0 mg/kg/injection, schedule: Q01DX005 (ip), vehicle: Klucel (hydroxypropylcellulose) (HPC).
[5] abbreviates: dose: 25.0 mg/kg/injection, schedule: Q01DX009 (ip), vehicle: saline with Tween-80.
The mark [6] stands for this setting: dose: 50.0 mg/kg/injection, schedule: Q01DX009 (ip), vehicle: saline with Tween-80.
[7] abbreviates: dose: 100.0 mg/kg/injection, schedule: Q01DX009 (ip), vehicle: saline with Tween-80.
[8] abbreviates: dose: 200.0 mg/kg/injection, schedule: Q01DX009 (ip), vehicle: saline with Tween-80.
[9] abbreviates: dose: 120.0 mg/kg/injection, schedule: Q01DX005 (ip), vehicle: saline with Tween-80.
Where [10] appears, read: dose: 240.0 mg/kg/injection, schedule: Q01DX005 (ip), vehicle: saline with Tween-80.
The mark [11] stands for this setting: dose: 12.5 mg/kg/injection, schedule: Q01DX009 (ip), vehicle: saline with Tween-80.
[12] abbreviates: dose: 50.0 mg/kg/injection, schedule: Q01DX009 (ip), vehicle: saline.
Where [13] appears, read: dose: 100.0 mg/kg/injection, schedule: Q01DX009 (ip), vehicle: saline.
The mark [14] stands for this setting: dose: 200.0 mg/kg/injection, schedule: Q01DX009 (ip), vehicle: saline.
Where [15] appears, read: dose: 60.0 mg/kg/injection, schedule: Q01DX005 (ip), vehicle: Klucel (hydroxypropylcellulose) (HPC).
[16] abbreviates: dose: 120.0 mg/kg/injection, schedule: Q01DX005 (ip), vehicle: Klucel (hydroxypropylcellulose) (HPC).

Regarding `COc1ccc2sc3cc(Cl)ccc3c(=O)c2c1`, the T/C reads like this: (dose: 1.87 mg/kg/injection, schedule: Q01DX005 (ip), vehicle: saline with Tween-80) 89 % of control; (dose: 3.75 mg/kg/injection, schedule: Q01DX005 (ip), vehicle: saline with Tween-80) 90 % of control; (dose: 15.0 mg/kg/injection, schedule: Q01DX005 (ip), vehicle: saline with Tween-80) 89 % of control and 90 % of control; under setting [1], 88 % of control.

For `COc1cc(C2NC(=S)NC2=S)ccc1O` (configuration not stated), the T/C (dose: 25.0 mg/kg/injection, schedule: Q04DX003 (ip), vehicle: saline with Tween-80) is 109 % of control; the T/C (dose: 50.0 mg/kg/injection, schedule: Q04DX003 (ip), vehicle: saline with Tween-80) was 104 % of control; the T/C (dose: 100.0 mg/kg/injection, schedule: Q04DX003 (ip), vehicle: saline with Tween-80) was 109 % of control.

Take `CCN(CC)CCNC(=O)c1nn(C)c(=O)[nH]c1=O`: the T/C was 108 % of control under setting [2], 119 % of control under setting [3] and 99 % of control under setting [4].

For `C=C1C=CC1=O`, the T/C is 100 % of control (dose: 0.63 mg/kg/injection, schedule: Q01DX009 (ip), vehicle: olive oil, sesame oil, peanut oil); 100 % of control and 91 % of control (dose: 1.25 mg/kg/injection, schedule: Q01DX009 (ip), vehicle: olive oil, sesame oil, peanut oil); 100 % of control and 93 % of control (dose: 2.5 mg/kg/injection, schedule: Q01DX009 (ip), vehicle: olive oil, sesame oil, peanut oil); 100 % of control and 104 % of control (dose: 5.0 mg/kg/injection, schedule: Q01DX009 (ip), vehicle: olive oil, sesame oil, peanut oil); 99 % of control and 103 % of control (dose: 10.0 mg/kg/injection, schedule: Q01DX009 (ip), vehicle: olive oil, sesame oil, peanut oil).

Take `CS(=O)(=O)c1cc(=O)[nH]c(=O)[nH]1`: the T/C under setting [5] is 90 % of control, the T/C under setting [6] is 95 % of control, the T/C under setting [7] is 100 % of control and the T/C under setting [8] was 95 % of control.

For the compound `Nc1ccc2c(c1)Oc1ccc(N)cc1O2`, the T/C reads like this: under setting [1], 102 % of control; under setting [9], 100 % of control; under setting [10], 106 % of control.

For `CC1(C)N=C(N)N=C(N)N1c1ccc(CCCCc2ccc(Cl)cc2Cl)cc1`, the T/C (dose: 3.13 mg/kg/injection, schedule: Q01DX009 (ip), vehicle: saline with Tween-80) is 118 % of control and the T/C under setting [11] was 122 % of control.

As for `CC(C)(C)OC(=O)NC(CSCc1ccccc1)C(=O)ON1C(=O)CCC1=O` (configuration not stated), the T/C was 100 % of control under setting [2], 98 % of control under setting [3] and 94 % of control under setting [4].

As for `O=[N+]([O-])c1ccc(CSC(=S)Nc2ccc(Cl)c(Cl)c2)cc1`, the T/C was 106 % of control under setting [5]; 109 % of control (dose: 25.0 mg/kg/injection, schedule: Q01DX009 (ip), vehicle: saline); 114 % of control under setting [6]; 107 % of control under setting [12]; 103 % of control (dose: 50.0 mg/kg/injection, schedule: Q01DX009 (ip), vehicle: suspension in saline); 115 % of control under setting [7]. For the same compound, the T/C runs as follows: under setting [13], 109 % of control; (dose: 100.0 mg/kg/injection, schedule: Q01DX009 (ip), vehicle: suspension in saline) 113 % of control; under setting [8], 97 % of control; under setting [14], 116 % of control; (dose: 200.0 mg/kg/injection, schedule: Q01DX009 (ip), vehicle: suspension in saline) 115 % of control.

Regarding `Cc1cc(=O)oc2c(CNC(C(=O)O)C(C)C)c(O)ccc12` (configuration not stated), the T/C reads like this: under setting [15], 91 % of control; under setting [16], 91 % of control.

Regarding `COC(=O)C12CCC(CC1C13CCCC(C)(C)C1C(=O)OC3)C(C)C2O` (configuration not stated), the T/C (dose: 100.0 mg/kg/injection, schedule: Q04DX002 (ip), vehicle: saline with Tween-80) is 96 % of control; the T/C (dose: 200.0 mg/kg/injection, schedule: Q04DX002 (ip), vehicle: saline with Tween-80) is 94 % of control; the T/C (dose: 400.0 mg/kg/injection, schedule: Q04DX002 (ip), vehicle: saline with Tween-80) is 94 % of control.

Consider `CCOC(=O)CC1CC(C)(C(=O)OCC)C(=O)CC1=O` (configuration not stated), for which the T/C was 102 % of control (dose: 50.0 mg/kg/injection, schedule: Q01DX005 (ip), vehicle: saline with Tween-80); 104 % of control (dose: 100.0 mg/kg/injection, schedule: Q01DX005 (ip), vehicle: saline with Tween-80); 95 % of control (dose: 200.0 mg/kg/injection, schedule: Q01DX005 (ip), vehicle: saline with Tween-80).

With `COc1cc(C2=NCCc3cc4c(cc32)OCO4)cc(OC)c1OC`, the T/C reads like this: (dose: 50.0 mg/kg/injection, schedule: Q01DX005 (ip), vehicle: saline) 100 % of control and 101 % of control; (dose: 100.0 mg/kg/injection, schedule: Q01DX005 (ip), vehicle: saline) 105 % of control and 118 % of control; (dose: 200.0 mg/kg/injection, schedule: Q01DX005 (ip), vehicle: saline) 152 % of control.

Regarding `O=C1C2CCCCC2C1(Cl)Cl` (configuration not stated), the T/C is 103 % of control under setting [5], 99 % of control under setting [6] and 118 % of control under setting [7].

Take `CC1C/C(=C2/NC3CCCCC3NC2=O)C(=O)O1` (configuration not stated): the T/C is, setting by setting: (dose: 6.25 mg/kg/injection, schedule: Q01DX009 (ip), vehicle: saline with Tween-80) 100 % of control; under setting [11], 95 % of control; under setting [5], 92 % of control.

In the case of `CCC(=O)N=c1sc(SCc2ccccc2)nn1C(=O)SC` (tested in a mixture with another compound), the T/C reads like this: under setting [15], 95 % of control; under setting [16], 98 % of control; (dose: 240.0 mg/kg/injection, schedule: Q01DX005 (ip), vehicle: Klucel (hydroxypropylcellulose) (HPC)) 90 % of control.

Turning to `CC(C)(O)c1cc(=O)n(Cc2ccccc2)[nH]1`, the T/C is 106 % of control under setting [2], 109 % of control under setting [3] and 108 % of control under setting [4].

In the case of `C[n+]1ccn(Cc2ccc([N+](=O)[O-])cc2)c1`, the T/C reads like this: under setting [12], 115 % of control; under setting [13], 102 % of control.

As for `CCOC1OCN(Cc2ccccc2)CC1(C)C` (configuration not stated), the T/C is, setting by setting: under setting [6], 114 % of control; under setting [7], 115 % of control; under setting [8], 117 % of control.

With `O=C1C(=O)C2c3ccccc3C1c1ccccc12`, the T/C is, setting by setting: (dose: 50.0 mg/kg/injection, schedule: Q04DX002 (ip), vehicle: suspension in saline) 101 % of control; (dose: 100.0 mg/kg/injection, schedule: Q04DX002 (ip), vehicle: suspension in saline) 106 % of control; (dose: 200.0 mg/kg/injection, schedule: Q04DX002 (ip), vehicle: suspension in saline) 112 % of control.

Consider `Cn1c(Br)c(Br)c(=O)n(C)c1=O`, for which the T/C by setting is: under setting [2], 99 % of control; under setting [3], 100 % of control; under setting [4], 100 % of control.

As for `O=C1CC(=O)N2C=CC=CC2=N1`, the T/C by setting is: under setting [12], 101 % of control; under setting [14], 91 % of control.

On to `CC(C)(C)C1CC=CC(=O)CC1` (configuration not stated), for which the T/C was 111 % of control (dose: 100.0 mg/kg/injection, schedule: Q01DX009 (ip), vehicle: Klucel (hydroxypropylcellulose) (HPC)) and 119 % of control (dose: 200.0 mg/kg/injection, schedule: Q01DX009 (ip), vehicle: Klucel (hydroxypropylcellulose) (HPC)).

With `COC(=O)C=P(c1ccccc1)(c1ccccc1)c1ccccc1`, the T/C by setting is: under setting [5], 104 % of control; under setting [6], 100 % of control; under setting [7], 91 % of control.

For `Cc1ccc(C2COc3cc(O)c(O)cc3C2)cc1` (configuration not stated), the T/C is 103 % of control under setting [1], 105 % of control under setting [9] and 117 % of control under setting [10].

Take `COC(=O)/C=C/CNC(C)C`: the T/C by setting is: (dose: 25.0 mg/kg/injection, schedule: Q01DX009 (ip), vehicle: water) 101 % of control; (dose: 50.0 mg/kg/injection, schedule: Q01DX009 (ip), vehicle: water) 99 % of control; (dose: 100.0 mg/kg/injection, schedule: Q01DX009 (ip), vehicle: water) 108 % of control; (dose: 200.0 mg/kg/injection, schedule: Q01DX009 (ip), vehicle: water) 115 % of control; (dose: 400.0 mg/kg/injection, schedule: Q01DX009 (ip), vehicle: water) 97 % of control.
